Measured values published in ChEMBL document CHEMBL1157539, “Thousands of chemical starting points for antimalarial lead identification” (Nature, 2010).

system: Plasmodium falciparum; experiment: GSK_TCMDC: Inhibition of Plasmodium falciparum 3D7 in whole erythrocytes, using parasite LDH activity as an index of growth.; type: functional, organism-based; details: Plasmodium falciparum, 3D7

SMILES	XC50 [nM]
COc1ccc2nccc(N/N=C/c3cccc([N+](=O)[O-])c3)c2c1	398
CN1CC=C(c2c[nH]c3ccc(OCc4ccccc4)cc23)CC1	718
CCn1ncc2c(NC3CCOCC3)c(CNC(=O)c3ccnn3C)c(C)nc21	533
COc1ccc(Oc2ccc(Nc3ccnc4ccc(C(F)(F)F)cc34)cc2)cc1OC	1060
COc1ccc2c(c1)CC1CN(CCCCNC(=O)c3ccc(NC(=O)c4cc(Cl)cc(Cl)c4)cc3)CCN1C2 (stereo unspecified)	767
COc1ccc2nccc([C@@H](O)CN3CCC(NC(=O)Cc4cccc5c(Br)cccc45)CC3)c2c1	796
O[C@H]1[C@H](OCc2ccc(-c3ccccc3)cc2)CC[C@@H]1N1CCCCC1	1060
CCOc1ccc2c(=NN=Cc3ccccc3OC)cc(C)[nH]c2c1	496
O=C(/C=C/c1ccc(Cl)c(Cl)c1)NCCCCCN1CCC(NC(=O)Nc2ccc3c(c2)OCO3)CC1	713
Cc1cc(NCCC(=O)NCc2cccc(F)c2)nc(NCCc2ccc(F)cc2)n1	1750
CCn1cc(CN2C(=O)C(c3ccccc3)(c3ccccc3)N=C2N)cn1	820
Cc1noc(C)c1-c1cccc(CNCc2ccc(-c3ccc(-c4nc5cccc(C)c5[nH]4)cc3)cc2)c1	239
O=C(CCCCCNC(=O)c1ccc(O)c(-c2ccc(Cl)c(Cl)c2)c1)NCc1cccc(C(F)(F)F)c1	731
COc1ccc2[nH]c(C)cc(=NN=Cc3cc(C)ccc3O)c2c1	143
COc1cc(OC)cc(-c2nnc(Sc3ccc(C#N)c([N+](=O)[O-])c3)n2C)c1	937
Cc1cccc(OC(C)C(=O)Nc2cc(C(F)(F)F)ccc2N2CCOCC2)c1 (stereo unspecified)	237
COc1ccc(CCNC(=O)c2ccc(-n3cc(NC(=O)c4cccnc4)cn3)cc2)cc1OC	1070
COc1ccc(CNCc2cccc(-c3cccc(-c4nc5ccccc5[nH]4)c3)c2)cc1	368
Cc1cccc(NC(=O)c2ccc(C(=O)NC3CCN(CC4CCCCC4)CC3)cc2)c1	805
CCOc1ccc(NC(=O)c2cccc(CN3CCCN(Cc4cccc(O)c4)CC3)c2)cc1	1080
COc1ccc(NC(C)C(=O)Nc2ccc(Br)cc2)cc1S(=O)(=O)N1CCCCC1 (stereo unspecified)	221
CS(=O)(=O)c1ccc(CNCc2ccc(-c3ccc(-c4nc5cc(F)ccc5[nH]4)s3)cc2)cc1	268
O=C(Nc1ccc(OCc2ccccc2)cc1)c1nc2ccccc2nc1Cl	254
c1ccc(C2=NN=C(c3ccccn3)C3C4CC(C23)C2C3CC(c5ccccc53)C42)nc1 (stereo unspecified)	853

SMILES	XC50 [nM]
O=C(Cc1cccc(OCCCN(Cc2cccc(C(F)(F)F)c2Cl)CC(c2ccccc2)c2ccccc2)c1)NCc1ccco1	937
COc1cc(NC(=O)N2CCOC(CCN3CCC4(CCc5ccccc54)CC3)(c3ccc(Cl)c(Cl)c3)C2)cc(OC)c1OC (stereo unspecified)	156
Cc1nc2nc(N)nc(N)c2c(C)c1Cc1ccccc1Cl	112
CC(C)CNCc1ccc(-c2ccc(CN(C(=O)NCCc3ccccc3)C3CCN(Cc4ccccc4)CC3)cc2)cc1	699
CC(C)(C(=O)NCCC1CCN(CCCCCNC(=O)/C=C/c2ccc(Cl)c(Cl)c2)CC1)c1ccc(Cl)cc1	1280
CN(C)c1ccc(-c2csc(C(=O)NC3CCCCN(CCC(C)(C)C)C3)c2)cc1 (stereo unspecified)	1050
CC[C@H](C)CNC(=O)c1ccnc(-c2ccc(CN3CCC(N4CCCC4)CC3)cc2)c1	891
CCNc1cc(C(=O)N[C@@H](Cc2ccccc2)[C@H](O)CNC(C)C)cc(N2CC(c3ccccc3)CCS2(=O)=O)c1 (stereo partly specified)	412
Cc1ccc(Nc2nnc(SCC(=O)Nc3ccc(CN4CCCC4)cc3)s2)cc1	1210
N[C@@H](Cc1cc(I)c(Oc2ccc(O)c(C(=O)O)c2)c(I)c1)C(=O)O	991
CN(C)Cc1cccc(-c2ccc(NC(=O)c3ccc4c(=O)n(CCN5CCCCC5)cnc4c3)cc2)c1	650
O=C(NCCc1cccc(F)c1)c1cc(Br)cc(N2CCN(c3ccncc3)CC2)c1	764
Cn1cccc1CCNCc1ccc(-c2cccc(-c3nc4ccccc4[nH]3)c2)cc1	1210
O=C(CCn1c2ccccc2c2ccccc21)NN=Cc1ccco1	588
Ic1cc(CNC2CCCCC2)ccc1OCc1cccc(COc2ccc(CNC3CCCCC3)cc2I)c1	829
CC(Cc1ccc(NC(=O)c2ccc(CC(C)NCc3ccc(Cl)c(Cl)c3)cc2)cc1)NCCc1cccc(Cl)c1 (stereo unspecified)	1000
CC(=O)N1CCC(C(=O)Nc2ccc(-c3cccc(-c4nc5cc(C(F)(F)F)ccc5[nH]4)c3)cc2)CC1	239
CN(c1ncc(-c2cccc(CNCc3ccccc3O)c2)cn1)C1CCCCC1	822
CC(=O)Oc1cc(OCc2ccccc2)c(OC(C)=O)c(OCc2ccccc2)c1	407
CC(C)CNCc1cccc(-c2cccc(CNc3ccc4ncccc4c3)c2)c1	947
CNCc1cccc2nc(-c3ccc(Cc4cc(Cl)ccc4OCC(C)C)o3)[nH]c12	895
Cc1cc(NCc2ccccc2)nc(NCc2ccccc2)n1	974
COc1ccc(-c2ccc(CNCc3ccccc3)cc2)cc1S(=O)(=O)NCCN1CCCC1	726
CC(C)(C)OC(=O)NCc1ccc(Nc2nnc(-c3cccc(OCC(=O)NCc4cc(C(F)(F)F)cc(C(F)(F)F)c4)c3)o2)cc1	832

SMILES	XC50 [nM]
CC[C@H]1CN2CC[C@@H]1C[C@H]2[C@H](O)c1cc(-c2ccc(Cl)c(Cl)c2)nc2ccc(O)cc12	262
CCOC(=O)c1c(C)n(-c2ccccc2)c2ccc(O)cc12	475
Cc1nnsc1C(=O)Nc1ccc(-c2cccc(-c3nc4cc(C(F)(F)F)ccc4[nH]3)c2)cc1	838
Nc1nc(N)c(-c2ccccc2)c(=O)[nH]1	1000
CNc1ccc(CNCc2cccc(-c3ccc(-c4nc5ccccc5[nH]4)s3)c2)cc1	734
O=C(/C=C/c1ccc(Cl)c(Cl)c1)NCCCCCCN1CCN(C(=O)Nc2ccc(F)c(Cl)c2)CC1	938
Cc1cccc2nc(-c3ccc(-c4ccc(CN5CC(C)OC(C)C5)cc4)cc3)[nH]c12 (stereo unspecified)	523
COc1ccc(NC(=O)Nc2ccc(-c3cccc(-c4nc5cccc(C)c5[nH]4)c3)cc2)cc1	142
O=C(NC1CCN(Cc2ccc(Cl)cc2)CC1)c1cn(-c2ccccc2)nc1-c1cccnc1	972
Cc1ccc(C(C#N)c2ccc3c(C(F)(F)F)cc(C(F)(F)F)nc3n2)cc1 (stereo unspecified)	700
N=C(N)c1ccc(OCc2cccc(COc3ccc(C(=N)N)cc3I)c2)c(I)c1	337
COc1ccc2nccc([C@@H](O)CN3CCC(NCCNc4ccccn4)CC3)c2c1	741
COc1cc(C(=O)N2CCOC(CCN3CCC4c5ccccc5CC43)(c3ccc(Cl)c(Cl)c3)C2)cc(OC)c1OC (stereo unspecified)	529
COc1cc2nc(N3CCC(CNC(=O)c4ccc(-c5ccc(C#N)cc5)cc4)CC3)nc(N)c2cc1OC	796
CN(C)CCNC(=O)NC1CN(c2ncnc3cc(-c4ccccc4)sc23)C1	585
O=C(NCCCCN1CCN(CC=Cc2ccccc2)CC1)c1ccc(NC(=O)c2cc(Cl)cc(Cl)c2)cc1	208
COc1cc(Cc2cnc(N)nc2N)cc(OCCCCC2SC(=O)NC2=O)c1OC (stereo unspecified)	30.7
COc1cc2c(cc1OC)C(c1ccc(Br)cc1)CN(C)CC2 (stereo unspecified)	943
CC(=O)N(C)c1ccc(C(=O)Nc2cccc(-c3cccc(-c4nc5cccc(C)c5[nH]4)c3)c2)cc1	620
O=C(Nc1cccc([N+](=O)[O-])c1)Nc1cccc(C(F)(F)F)c1	767
CC(=O)Nc1ncc(C(=O)Nc2cccc(-c3cccc(-c4nc5cc(F)ccc5[nH]4)c3)c2)s1	454
Cc1[nH]c2ccccc2c1C1=CCN(CCCCC2(C)C(=O)Nc3ccccc32)CC1 (stereo unspecified)	232
Nc1ncc(-c2ccc(F)c(Cl)c2)c(N)n1	1230
COCCn1c(-c2cccc(Cl)c2)nn(-c2ccc([N+](=O)[O-])cc2Cl)c1=S	737

SMILES	XC50 [nM]
COC(=O)c1cccc(CNCc2cccc(-c3ccc(-c4nc5cc(C(F)(F)F)ccc5[nH]4)cc3)c2)c1	257
Cc1ccc([S+]([O-])Cc2ccc(Cl)cc2)cc1 (stereo unspecified)	196
NCCNc1ccc([N+](=O)[O-])cc1C(=O)Nc1cccc(C(F)(F)F)c1	905
CC(=O)N(Cc1cccc(-c2cccc(CNCc3ccc4c(c3)OCO4)c2)c1)C1CCN(Cc2ccccc2)CC1	839
COc1ccc(NS(=O)(=O)c2cccc(C(=O)Nc3ccc(C(F)(F)F)cc3)c2)cc1N1CCN(CC(C)C)CC1	838
CC(CNC(=O)c1cc2c(Cl)cc(Cl)cc2[nH]1)CNc1cc(=O)c2ccccc2[nH]1 (stereo unspecified)	715
OC(COCc1ccc(-c2ccccc2)cc1)CN1CCCCC1 (stereo unspecified)	269
CCNc1cc(C(=O)N[C@@H](Cc2cccc(Cl)c2)[C@H](O)CNC(C)CCCC(C)C)cc(N2CCCCS2(=O)=O)c1 (stereo partly specified)	285
Cc1ccc(F)c(CN2CCC(N3CC(c4ccccc4)(c4ccccc4)OC3=O)CC2)c1Cl	593
Cc1noc(C)c1CN1Cc2ccccc2OC2(CCN(Cc3c[nH]c4cnccc34)CC2)C1	1070
Nc1nccc2ccc(-c3ccc(Oc4ccccc4)cc3)cc12	278
CC(C)(C)c1cc(CN2CCN(Cc3ccccc3)CC2)cc(C(C)(C)C)c1O	771
O=C(Nc1cccc(-c2cccc(-c3nc4ccccc4[nH]3)c2)c1)Nc1ccc(Cl)c(Cl)c1	131
CC(C)(C)c1cc(C(=O)N2CCN(c3cnccn3)CC2)n(Cc2ccccc2)n1	1140
CN1C(=O)C(=O)N(CCCCCONC(=N)N)C1=S	197
CCOC(=O)c1ccc(NC(=O)NC2CCN(CCCCCNC(=O)/C=C/c3ccc(Cl)c(Cl)c3)C2)cc1 (stereo unspecified)	487
CC(C)c1ccc(NC(=O)c2cccc(CN3CCCN(Cc4cccc(C#N)c4)CC3)c2)cc1	948
COc1ccc(NC(=O)c2c(NC(=O)c3cccs3)sc3c2CCCC3)cc1	448
COc1ccc2nccc([C@@H](O)CN3CCC(NCC(=O)Nc4cc(F)cc(F)c4)CC3)c2n1	912
Cc1nc2ccc(NC(=O)Nc3ccnc4ccc(C(F)(F)F)cc34)cc2o1	912
COc1cc(NCCCCNc2ccc(Cl)c(Cl)c2)nc2ccccc12	527
O=C(/C=C/c1ccc(Cl)c(Cl)c1)NCCCCCN1CCC(CCNC(=O)C2(c3ccc(Cl)cc3)CC2)CC1	925
Cn1cncc1C(=O)Nc1cccc(-c2ccc(-c3nc4cc(F)ccc4[nH]3)s2)c1	872
CCOc1ccc(-c2nonc2NC(=O)c2ccccc2Cl)cc1OCC	742
